Values of other authors, collected in patent publication US8598325B2, “Solid-phase microextraction coatings and methods for their preparation” (priority 2002, dated 2013).
Like-named read-outs stand apart in the source and are kept apart here.

Tests used:
[1] = not given; remark: listed apart in the source
[2] = at 25° C.

Row | SMILES | LogP (pH 7) | Sol. in water [1] | Vapour Pressure [2] | LogP (at pH 7, 20° C.)
1 | CCCCC(O)(Cn1cncn1)c1ccc(Cl)cc1Cl (centres unmarked) [Hexaconazole, hexaconazole] | 3.9 |  |  | 
2 | CCCC(Cn1cncn1)c1ccc(Cl)cc1Cl (centres unmarked) [Penconazole, penconazole] | 3.72 | 73 mg/L | 0.366 mPa | 
3 | CC(C)(C)C(=O)C(Oc1ccc(Cl)cc1)n1cncn1 (centres unmarked) [Triadimefon, triadimefon] |  | 70 mg/L | 0.02 mPa | 3.18
4 | CC(C)(C)C(O)C(Oc1ccc(Cl)cc1)n1cncn1 (centres unmarked) [Triadimenol, triadimenol] | 3.18 |  |  | 
